The values that follow come from patent US9914730B2, “Azaquinazoline inhibitors of Atypical protein Kinase C” (Ignyta, Inc., priority 2012, dated 2018).

The assay deals with T1, full-length human PKCι (Homo sapiens, UniProt P41743).
T1 construct: Recombinant, full-length human PKCι expressed in Sf21 insect cells is also commercially available; purchased; host or cells: Sf21 insect cells
T1 sequence (P41743 1-596): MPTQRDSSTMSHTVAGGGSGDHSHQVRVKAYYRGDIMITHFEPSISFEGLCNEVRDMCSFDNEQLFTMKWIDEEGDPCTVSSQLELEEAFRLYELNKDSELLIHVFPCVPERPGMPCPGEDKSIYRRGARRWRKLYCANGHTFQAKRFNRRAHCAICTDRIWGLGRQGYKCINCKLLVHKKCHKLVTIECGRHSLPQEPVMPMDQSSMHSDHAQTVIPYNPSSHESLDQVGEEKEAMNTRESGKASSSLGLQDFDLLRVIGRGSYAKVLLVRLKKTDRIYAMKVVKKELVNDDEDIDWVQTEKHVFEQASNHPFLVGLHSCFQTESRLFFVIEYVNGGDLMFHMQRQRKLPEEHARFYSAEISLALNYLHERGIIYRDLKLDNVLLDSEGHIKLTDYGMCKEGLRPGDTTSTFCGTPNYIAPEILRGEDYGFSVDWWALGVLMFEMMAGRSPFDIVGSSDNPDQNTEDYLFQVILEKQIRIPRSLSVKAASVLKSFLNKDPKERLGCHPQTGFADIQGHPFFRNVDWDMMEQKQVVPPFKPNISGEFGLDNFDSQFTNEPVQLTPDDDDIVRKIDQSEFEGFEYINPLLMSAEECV
Briefly: PKCι IC50 IMAP assay, full-length PKCι at 150 μM ATP. In kind it is biochemical. As to conditions: read-out: IC50 in IMAP assay against full length PKCi at 150 μM ATP. In a few lines: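 Full-length hPKCι (Sf21) ~15 pM; 5FAM-peptide 100 nM; ATP 150 μM (5× KM^APP); tris pH7.5/MgCl2/EGTA/DTT/Triton, 4% DMSO; 60 min RT; IMAP stop, 2 h; FP 485/530 nm; IC50 from % inhibition curves.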

Broadly, the IC50 is the midpoint of a concentration-inhibition curve. Consider `N[C@H](CNc1nc(-c2ccncc2)nc2c(-c3ccc(-c4ccc(Cl)cc4)cc3)nccc12)Cc1ccccc1` [Example 107, N-[(2S)-2-amino-3-phenylpropyl]-8-[4-(4-chloro-phenyl)-phenyl]-2-(pyridin-4-yl)pyrido[3,4-d]pyrimidin-4-amine], for which the IC50 was 1000 to 10000 nM. As for `CC(C)(C)Nc1cc(-c2nc(N3CCNCC3)c3c(C4CC4)cncc3n2)ccn1` [Example 520, tert-Butyl-[4-(5-cyclopropyl-4-piperazin-1-yl-pyrido[3,4-d]pyrimidin-2-yl)-pyridin-2-yl]-amine], the figure is less than 100 nM; as for `c1ccc(C[C@H]2CNCCN2c2nc(-c3ccncc3)nc3cnccc23)cc1` [Example 38, (2S)-2-benzyl-1-[2-(pyridin-4-yl)-pyrido[3,4-d]-pyrimidin-4-yl]-piperazine], 100 to 1000 nM; as for `c1cc(-c2nccc3c(N[C@@H]4CCNC4)nc(N4CCOCC4)nc23)[nH]n1` [Example 1012, [2-Morpholin-4-yl-8-(2H-pyrazol-3-yl)-pyrido[3,4-d]pyrimidin-4-yl]-(R)-pyrrolidin-3-yl-amine], 1000 to 10000 nM. Regarding `COc1ccccc1-c1nccc2c(NC[C@@H](N)Cc3ccccc3)nc(-c3ccncc3)nc12` [Example 93, N-[(2S)-2-amino-3-phenylpropyl]-8-(2-methoxy-phenyl)-2-(pyridin-4-yl)-pyrido[3,4-d]-pyrimidin-4-amine], the IC50 was 100 to 1000 nM. As for `O=C(Nc1cc(-c2nc(N[C@@H]3CCNC3)c3ccncc3n2)ccn1)c1cnccn1` [Example 307, Pyrazine-2-carboxylic acid {4-[4-((R)-pyrrolidin-3-ylamino)-pyrido[3,4-d]pyrimidin-2-yl]-pyridin-2-yl}-amide], the figure is 100 to 1000 nM; as for `CN1CCN(c2cccc(Nc3cc(-c4nc(N5CCC(O)C(O)C5)c5c(C6CC6)cncc5n4)ccn3)c2)CC1` (single isomer, unassigned) [Example 752, (3R,4S or 3R,4S)-1-(5-Cyclopropyl-2-{2-[3-(4-methyl-piperazin-1-yl)-phenylamino]-pyridin-4-yl}-pyrido[3,4-d]pyrimidin-4-yl)-piperidine-3,4-diol], less than 100 nM. For `Cn1ccc(Nc2cc(-c3nc(N4CCNCC4)c4c(C5CC5)cncc4n3)ccn2)n1` [Example 600, [4-(5-Cyclopropyl-4-piperazin-1-yl-pyrido[3,4-d]pyrimidin-2-yl)-pyridin-2-yl]-(l-methyl-1H-pyrazol-3-yl)-amine] the value was 1000 to 10000 nM. Take `Cc1ccccc1Nc1cc(-c2nc(N3CCNCC3)c3c(C4CC4)cncc3n2)ccn1` [Example 486, [4-(5-Cyclopropyl-4-piperazin-1-yl-pyrido[3,4-d]pyrimidin-2-yl)-pyridin-2-yl]-o-tolyl-amine]: the concentration for half-maximal inhibition (IC50) is less than 100 nM. As for `C[C@H]1CN(c2nc(-c3ccnc(Nc4ccccc4)c3)nc3cncc(Cl)c23)CCN1` [Example 250, {4-[5-Chloro-4-((S)-3-methyl-piperazin-1-yl)-pyrido[3,4-d]pyrimidin-2-yl]-pyridin-2-yl}-phenyl-amine], the figure is 100 to 1000 nM. As for `OCC1CCN(c2nc(-c3ccnc4[nH]c(C(F)(F)F)cc34)nc3cncc(C4CC4)c23)CC1` [Example 1242, {1-[5-Cyclopropyl-2-(2-trifluoromethyl-1H-pyrrolo[2,3-b]pyridin-4-yl)-pyrido[3,4-d]pyrimidin-4-yl]-piperidin-4-yl}-methanol], the IC50 fell in the range of 1000 to 10000 nM. For `CN(c1nc(-c2ccnc(Nc3ncc(F)cc3F)c2)nc2cncc(C3CC3)c12)C1CCNCC1(C)C` (stereo not shown) [Example 2196, {5-Cyclopropyl-2-[2-(3,5-difluoro-pyridin-2-ylamino)-pyridin-4-yl]-pyrido[3,4-d]pyrimidin-4-yl}-(3,3-dimethyl-piperidin-4-yl)-methyl-amine] the value was less than 100 nM. For `FC1(F)CCC(Nc2cc(-c3nc(N4CCNCC4)c4c(C5CC5)cncc4n3)ccn2)CC1` [Example 510, [4-(5-Cyclopropyl-4-piperazin-1-yl-pyrido[3,4-d]pyrimidin-2-yl)-pyridin-2-yl]-(4,4-difluoro-cyclohexyl)-amine], the IC50 is less than 100 nM. For the compound `Clc1ccccc1Nc1cc(-c2nc(N3CCNCC3)c3c(C4CC4)cncc3n2)ccn1` [Example 477, (2-Chloro-phenyl)-[4-(5-cyclopropyl-4-piperazin-1-yl-pyrido[3,4-d]pyrimidin-2-yl)-pyridin-2-yl]-amine], the IC50 was less than 100 nM. For `Cc1cc2c(-c3nc(N4CCNCC4)c4c(C5CC5)cncc4n3)ccnc2[nH]1` [Example 1217, 5-Cyclopropyl-2-(2-methyl-1H-pyrrolo[2,3-b]pyridin-4-yl)-4-piperazin-1-yl-pyrido[3,4-d]pyrimidine] the value was less than 100 nM; for `NCCNc1nc(-c2ccncc2)nc2cnccc12` [Example 3, N-(2-aminoethyl)-2-(pyridin-4-yl)-pyrido[3,4-d]-pyrimidin-4-amine], 10000 to 40000 nM.

For the compound `CCn1cc(Cl)c(Nc2cc(-c3nc(N4CCNCC4)c4c(C5CC5)cncc4n3)ccn2)n1` [Example 2015, (4-Chloro-1-ethyl-1H-pyrazol-3-yl)-[4-(5-cyclopropyl-4-piperazin-1-yl-pyrido[3,4-d]pyrimidin-2-yl)-pyridin-2-yl]-amine], the IC50 was less than 100 nM. Turning to `[2H]C([2H])([2H])c1cc2c(-c3nc(N4CCNCC4)c4c(C5CC5)cncc4n3)ccnc2[nH]1` [Example 1228, 5-Cyclopropyl-4-piperazin-1-yl-2-(2-triduteriomethyl-1H-pyrrolo[2,3-b]pyridin-4-yl)-pyrido[3,4-d]pyrimidine], the IC50 is less than 100 nM. As for `c1cc(-c2nc(N3CCNCC3)c3c(C4CCC4)cncc3n2)c2cc(C3CCOC3)[nH]c2n1` (stereo not shown) [Example 2184, 5-Cyclobutyl-4-piperazin-1-yl-2-[2-(tetrahydro-furan-3-yl)-1H-pyrrolo[2,3-b]pyridin-4-yl]-pyrido[3,4-d]pyrimidine], the figure is less than 100 nM. For the compound `Fc1cccc(F)c1Nc1cc(-c2nc(OC3CCNCC3)c3c(C4CC4)cncc3n2)ccn1` [Example 757, {4-[5-Cyclopropyl-4-(piperidin-4-yloxy)-pyrido[3,4-d]pyrimidin-2-yl]-pyridin-2-yl}-(2,6-difluoro-phenyl)-amine], the IC50 was in the range of 100 to 1000 nM.

Consider `Clc1ccc2[nH]c3nccc(-c4nc(N5CCNCC5)c5c(C6CCC6)cncc5n4)c3c2c1` [Example 2200, 6-Chloro-4-(5-cyclobutyl-4-piperazin-1-yl-pyrido[3,4-d]pyrimidin-2-yl)-9H-pyrido[2,3-b]indole], for which the IC50 is less than 100 nM. For `COc1cccc(Nc2cc(-c3nc(N4CCNCC4)c4c(C5CC5)cncc4n3)ccn2)n1` [Example 588, [4-(5-Cyclopropyl-4-piperazin-1-yl-pyrido[3,4-d]pyrimidin-2-yl)-pyridin-2-yl]-(6-methoxy-pyridin-2-yl)-amine] the value was less than 100 nM; for `COc1cncc2nc(-c3ccnc(Nc4cccnc4)c3)nc(N[C@@H]3CCNC3)c12` [Example 377, {5-Methoxy-2-[2-(pyridin-3-ylamino)-pyridin-4-yl]-pyrido[3,4-d]pyrimidin-4-yl}-(R)-pyrrolidin-3-yl-amine], 100 to 1000 nM. Consider `FC(F)(F)c1ccc(-n2cc(Nc3cc(-c4nc(N5CCNCC5)c5c(C6CC6)cncc5n4)ccn3)c(Cl)n2)nc1` [Example 2154, [3-Chloro-1-(5-trifluoromethyl-pyridin-2-yl)-1H-pyrazol-4-yl]-[4-(5-cyclopropyl-4-piperazin-1-yl-pyrido[3,4-d]pyrimidin-2-yl)-pyridin-2-yl]-amine], for which the IC50 was less than 100 nM.

Consider `CCn1cc(Cl)c(Nc2cc(-c3nc(N4CCNC(C)(C)C4)c4c(C5CC5)cncc4n3)ccn2)n1` [Example 2043, (4-Chloro-1-ethyl-1H-pyrazol-3-yl)-{4-[5-cyclopropyl-4-(3,3-dimethyl-piperazin-1-yl)-pyrido[3,4-d]pyrimidin-2-yl]-pyridin-2-yl}-amine], for which the IC50 was less than 100 nM. Take `Fc1cccc(F)c1Nc1cc(-c2nc(N3CCNC(CC(F)(F)F)C3)c3c(C4CC4)cncc3n2)ccn1` (stereo not shown) [Example 642, (4-{5-Cyclopropyl-4-[3-(2,2,2-trifluoro-ethyl)-piperazin-1-yl]-pyrido[3,4-d]pyrimidin-2-yl}-pyridin-2-yl)-(2,6-difluoro-phenyl)-amine]: the IC50 was in the range of 100 to 1000 nM. Consider `N#Cc1ccnc(Nc2cc(-c3nc(N4CC[C@@H](O)[C@@H](O)C4)c4c(C5CC5)cncc4n3)ccn2)c1` (stereo in doubt) [Example 488, 2-{4-[5-Cyclopropyl-4-((3S,4R)-3,4-dihydroxy-piperidin-1-yl)-pyrido[3,4-d]pyrimidin-2-yl]-pyridin-2-ylamino}-isonicotinonitrile], for which the IC50 was 100 to 1000 nM. For `COc1cncc2nc(-c3ccnc(Nc4ccc(C#N)cn4)c3)nc(N3CCNCC3)c12` [Example 353, 6-[4-(5-Methoxy-4-piperazin-1-yl-pyrido[3,4-d]pyrimidin-2-yl)-pyridin-2-ylamino]-nicotinonitrile] the value was less than 100 nM.
